In patent US5543415A, “Antidepressants” (Kyowa Hakko Kogyo Co., Ltd., priority 1992, dated 1996):

Test system: ddY-strain male mice
Test: Acute Toxicity Test (minimum lethal dose, oral)
Assay type: in vivo
Details: seven days after administration
Method: Test compounds were orally administered to groups of ddY-strain male mice weighing 20±1 g, each group consisting of three mice. Seven days after the administration, minimum lethal dose (MLD) of each compound was determined by observing the mortality.

SMILES | MLD (minimum lethal dose) [mg/kg]
CCn1c(=O)c2[nH]c(/C(C)=C/c3ccccc3)nc2n(CC)c1=O [Compound 133, (E)-1,3-Diethyl-8-(α-methylstyryl)xanthine] | > 100
CCCOc1ccc(/C=C/c2nc3c([nH]2)c(=O)n(CCC)c(=O)n3CCC)cc1 [Compound 50, (E)-8-(4-Propoxystyryl)-1,3-dipropylxanthine] | > 100
CCn1c(=O)c2[nH]c(/C=C/c3ccc4c(c3)OCCO4)nc2n(CC)c1=O [Compound 89, (E)-8-[2-(1,4-Benzodioxan-6-yl)vinyl]-1,3-diethylxanthine] | > 100
CCn1c(=O)c2[nH]c(/C=C/c3cc(C)c(OC)cc3C)nc2n(CC)c1=O [Compound 83, (E)-1,3-Diethyl-8-(4-methoxy-2,5-dimethylstyryl)xanthine] | > 300
CCn1c(=O)c2[nH]c(/C=C/c3cccc(Cl)c3)nc2n(CC)c1=O [Compound 131, (E)-8-(3-Chlorostyryl)-1,3-diethylxanthine] | > 100
COc1ccc(/C=C/c2nc3c(c(=O)n(C)c(=O)n3C)n2C)c(C)c1C [Compound 94, (E)-8-(4-Methoxy-2,3-dimethylstyryl)caffeine] | > 100
CCn1c(=O)c2[nH]c(/C=C/c3ccc(F)cc3)nc2n(CC)c1=O [Compound 149, (E)-1,3-Diethyl-8-(4-fluorostyryl)xanthine] | > 100
CCCn1c(=O)c2c(nc(/C=C/c3cccc([N+](=O)[O-])c3)n2C)n(CCC)c1=O [Compound 36, (E)-7-Methyl-8-(3-nitrostyryl)-1,3-dipropylxanthine] | > 100
CCCn1c(=O)c2c(nc(/C=C/c3cc(Br)c(OC)c(OC)c3)n2C)n(CCC)c1=O [Compound 61, (E)-8-(3-Bromo-4,5-dimethoxystyryl)-7-methyl-1,3-dipropylxanthine] | > 100
CCCn1c(=O)c2[nH]c(/C=C/c3ccc(OC)c4ccccc34)nc2n(CCC)c1=O [Compound 62, (E)-8-[2-(4-Methoxynaphthyl)vinyl]-1,3-dipropylxanthine] | > 100
CCn1c(=O)c2c(nc(/C=C/c3ccc(O)c(O)c3)n2C)n(CC)c1=O [Compound 182, (E)-8-(3,4-Dihydroxystyryl)-1,3-diethyl-7-methylxanthine] | > 100
CCn1c(=O)c2[nH]c(/C=C/c3cc(OC)c(OC)cc3Br)nc2n(CC)c1=O [Compound 117, (E)-8-(2-Bromo-4,5-dimethoxystyryl)-1,3-diethylxanthine] | > 100
CCCn1c(=O)c2c(nc(/C=C/c3cc(OC)c(OC)cc3Br)n2C)n(CCC)c1=O [Compound 59, (E)-8-(2-Bromo-4,5-dimethoxystyryl)-7-methyl-1,3-dipropylxanthine] | > 300
CCCn1c(=O)c2c(nc(/C=C/c3cc(C)c(OC)cc3C)n2C)n(CCC)c1=O [Compound 46, (E)-8-(4-Methoxy-2,5-dimethylstyryl)-7-methyl-1,3-dipropylxanthine] | > 300
CCCn1c(=O)c2c(nc(/C=C/c3cc(OC)cc(OC)c3)n2C)n(CCC)c1=O [Compound 34, (E)-8-(3,5-Dimethoxystyryl)-7-methyl-1,3-dipropylxanthine] | > 300
CCn1c(=O)c2[nH]c(/C=C/c3cccc(OC(F)(F)F)c3)nc2n(CC)c1=O [Compound 143, (E)-1,3-Diethyl-8-(3-trifluoromethoxystyryl)xanthine] | > 100
CCn1c(=O)c2c(nc(/C=C/c3cc(F)cc(F)c3)n2C)n(CC)c1=O [Compound 156, (E)-8-(3,5-Difluorostyryl)-1,3-diethyl-7-methylxanthine] | > 100
CCOc1ccc(/C=C/c2nc3c([nH]2)c(=O)n(CC)c(=O)n3CC)cc1 [Compound 123, (E)-8-(4-Ethoxystyryl)-1,3-diethylxanthine] | > 100
